Marks after values point to notes of the source that are not given here.
Assay: Biodistribution of radioactivity in rat tissues after intravenous injection
Format: in vivo
Conditions: i.v.; for Radioactivity in Plasma / Radioactivity in Whole blood: composite curve of 9 rats
Description: Sixteen adult male Sprague-Dawley rats (body weight 250-320 g: mean±SD=288±25 g) were used in 5 separate experiments. Each rat was injected with ˜13 MBq Compound 1, at a specific activity of […], via a previously catheterised tail vein. The associated stable compound was 0.5±0.2 nmol/kg. Discrete samples of arterial blood were collected from 9 of the rats via a previously catheterised tail artery.
Tissues were sampled post-mortem using an established protocol, as described in Hirani et al, Synapse 42:164-176 (2001). The radioactivity concentration data obtained at 12 times up to 90 min after radioligand injection were normalised for both amount injected and body weight, giving:—‘uptake units’=(cpm/g tissue)/(injected cpm/g body weight).

Question: For `CSc1cccc(N([11CH3])C(=N)Nc2cc(SC)ccc2Cl)c1` [Compound 1, (N-(2-chloro-5-(methylthio)phenyl)-N′-(3-methylthio)phenyl)-N′-[N-methyl-^11C]-methylguanidine], which “Radioactivity in Entorhinal cortex” value (10 min) is on record?
Answer: 2.04 Uptake Units

Question: What about the “Radioactivity in Fat” value (10 min) of the same compound?
Answer: 0.50 Uptake Units

Question: What about the “Radioactivity in Heart (ventricle)” value (10 min) of the same compound?
Answer: 2.20 Uptake Units

Question: What about the “Radioactivity in Hippocampus” value (10 min) of the same compound?
Answer: 1.81 Uptake Units

Question: What about the “Radioactivity in Hypothalamus” value (10 min) of the same compound?
Answer: 2.13 Uptake Units

Question: What about the “Radioactivity in Inferior collicull” value (10 min) of the same compound?
Answer: 2.69 Uptake Units

Question: And the “Radioactivity in Kidney” value (10 min)?
Answer: 5.72 Uptake Units

Question: What about the “Radioactivity in Large intestine” value (10 min) of the same compound?
Answer: 1.92 Uptake Units

Question: What about the “Radioactivity in Lge. intestine content” value (10 min) of the same compound?
Answer: 0.17 Uptake Units

Question: And the “Radioactivity in Liver” value (10 min)?
Answer: 4.38 Uptake Units

Question: What about the “Radioactivity in Lung” value (10 min) of the same compound?
Answer: 35.3 Uptake Units

Question: And the “Radioactivity in Medulla with Pons” value (10 min)?
Answer: 2.26 Uptake Units

Question: What about the “Radioactivity in Olfactory bulbs” value (10 min) of the same compound?
Answer: 1.91 Uptake Units

Question: What about the “Radioactivity in Olfactory tubercles” value (10 min) of the same compound?
Answer: 2.14 Uptake Units

Question: What about the “Radioactivity in Prefrontal cortex” value (10 min) of the same compound?
Answer: 2.52 Uptake Units

Question: And the “Radioactivity in Skeletal muscle” value (10 min)?
Answer: 1.05 Uptake Units

Question: And the “Radioactivity in Skin” value (10 min)?
Answer: 0.70 Uptake Units

Question: And the “Radioactivity in Sm. intestine content” value (10 min)?
Answer: 5.31 Uptake Units

Question: And the “Radioactivity in Small intestine” value (10 min)?
Answer: 2.49 Uptake Units

Question: What about the “Radioactivity in Somatosensory cortex” value (10 min) of the same compound?
Answer: 2.49 Uptake Units

Question: And the “Radioactivity in Spleen” value (10 min)?
Answer: 4.31 Uptake Units

Question: What about the “Radioactivity in Stomach” value (10 min) of the same compound?
Answer: 0.82 Uptake Units

Question: What about the “Radioactivity in Striata” value (10 min) of the same compound?
Answer: 2.17 Uptake Units

Question: What about the “Radioactivity in Superior collicull” value (10 min) of the same compound?
Answer: 2.35 Uptake Units

Question: And the “Radioactivity in Testis” value (10 min)?
Answer: 0.66 Uptake Units

Question: What about the “Radioactivity in Thalamus” value (10 min) of the same compound?
Answer: 2.39 Uptake Units

Question: And the “Radioactivity in Urine” value (10 min)?
Answer: 10.9 Uptake Units

Question: And the “Radioactivity in Visual cortex” value (10 min)?
Answer: 2.80 Uptake Units

Question: And the “Radioactivity in Plasma” value (10 min)?
Answer: 0.19 Uptake Units

Question: And the “Radioactivity in Whole blood” value (10 min)?
Answer: 0.21 Uptake Units

Question: And the “Radioactivity in Cerebellum” value (15 min)?
Answer: 1.81 Uptake Units

Question: What about the “Radioactivity in Entorhinal cortex” value (15 min) of the same compound?
Answer: 1.93 Uptake Units

Question: And the “Radioactivity in Fat” value (15 min)?
Answer: 0.75 Uptake Units

Question: And the “Radioactivity in Heart (ventricle)” value (15 min)?
Answer: 1.63 Uptake Units

Question: What about the “Radioactivity in Hippocampus” value (15 min) of the same compound?
Answer: 1.74 Uptake Units

Question: And the “Radioactivity in Hypothalamus” value (15 min)?
Answer: 1.85 Uptake Units

Question: What about the “Radioactivity in Inferior collicull” value (15 min) of the same compound?
Answer: 2.22 Uptake Units

Question: And the “Radioactivity in Kidney” value (15 min)?
Answer: 4.78 Uptake Units

Question: And the “Radioactivity in Large intestine” value (15 min)?
Answer: 1.65 Uptake Units

Question: And the “Radioactivity in Lge. intestine content” value (15 min)?
Answer: 0.03 Uptake Units

Question: What about the “Radioactivity in Liver” value (15 min) of the same compound?
Answer: 6.87 Uptake Units

Question: And the “Radioactivity in Lung” value (15 min)?
Answer: 10.7 Uptake Units

Question: And the “Radioactivity in Medulla with Pons” value (15 min)?
Answer: 1.92 Uptake Units

Question: And the “Radioactivity in Olfactory bulbs” value (15 min)?
Answer: 1.72 Uptake Units

Question: What about the “Radioactivity in Olfactory tubercles” value (15 min) of the same compound?
Answer: 1.92 Uptake Units

Question: And the “Radioactivity in Prefrontal cortex” value (15 min)?
Answer: 2.32 Uptake Units

Question: What about the “Radioactivity in Skeletal muscle” value (15 min) of the same compound?
Answer: 1.07 Uptake Units

Question: What about the “Radioactivity in Skin” value (15 min) of the same compound?
Answer: 0.51 Uptake Units

Question: What about the “Radioactivity in Sm. intestine content” value (15 min) of the same compound?
Answer: 9.63 Uptake Units

Question: And the “Radioactivity in Small intestine” value (15 min)?
Answer: 2.79 Uptake Units

Question: And the “Radioactivity in Somatosensory cortex” value (15 min)?
Answer: 2.24 Uptake Units

Question: What about the “Radioactivity in Spleen” value (15 min) of the same compound?
Answer: 4.46 Uptake Units

Question: And the “Radioactivity in Stomach” value (15 min)?
Answer: 2.07 Uptake Units

Question: What about the “Radioactivity in Striata” value (15 min) of the same compound?
Answer: 1.92 Uptake Units

Question: What about the “Radioactivity in Superior collicull” value (15 min) of the same compound?
Answer: 2.01 Uptake Units

Question: And the “Radioactivity in Testis” value (15 min)?
Answer: 0.66 Uptake Units

Question: And the “Radioactivity in Thalamus” value (15 min)?
Answer: 2.21 Uptake Units

Question: And the “Radioactivity in Urine” value (15 min)?
Answer: 22.0 Uptake Units

Question: And the “Radioactivity in Visual cortex” value (15 min)?
Answer: 2.28 Uptake Units

Question: What about the “Radioactivity in Plasma” value (15 min) of the same compound?
Answer: 0.17 Uptake Units

Question: And the “Radioactivity in Whole blood” value (15 min)?
Answer: 0.19 Uptake Units

Question: And the “Radioactivity in Cerebellum” value (20 min)?
Answer: 1.45* Uptake Units

Question: What about the “Radioactivity in Entorhinal cortex” value (20 min) of the same compound?
Answer: 1.80 Uptake Units

Question: And the “Radioactivity in Fat” value (20 min)?
Answer: 0.40* Uptake Units

Question: And the “Radioactivity in Heart (ventricle)” value (20 min)?
Answer: 1.10* Uptake Units

Question: What about the “Radioactivity in Hippocampus” value (20 min) of the same compound?
Answer: 1.60 Uptake Units

Question: What about the “Radioactivity in Hypothalamus” value (20 min) of the same compound?
Answer: 1.67 Uptake Units

Question: What about the “Radioactivity in Inferior collicull” value (20 min) of the same compound?
Answer: 1.97 Uptake Units

Question: And the “Radioactivity in Kidney” value (20 min)?
Answer: 3.19* Uptake Units

Question: What about the “Radioactivity in Large intestine” value (20 min) of the same compound?
Answer: 1.27* Uptake Units

Question: What about the “Radioactivity in Lge. intestine content” value (20 min) of the same compound?
Answer: 0.28* Uptake Units

Question: And the “Radioactivity in Liver” value (20 min)?
Answer: 6.47* Uptake Units

Question: And the “Radioactivity in Lung” value (20 min)?
Answer: 14.0* Uptake Units

Question: What about the “Radioactivity in Medulla with Pons” value (20 min) of the same compound?
Answer: 1.68 Uptake Units

Question: And the “Radioactivity in Olfactory bulbs” value (20 min)?
Answer: 1.46 Uptake Units

Question: And the “Radioactivity in Olfactory tubercles” value (20 min)?
Answer: 1.73 Uptake Units

Question: And the “Radioactivity in Prefrontal cortex” value (20 min)?
Answer: 1.94* Uptake Units

Question: And the “Radioactivity in Skeletal muscle” value (20 min)?
Answer: 0.96* Uptake Units

Question: And the “Radioactivity in Skin” value (20 min)?
Answer: 0.68* Uptake Units

Question: What about the “Radioactivity in Sm. intestine content” value (20 min) of the same compound?
Answer: 6.08* Uptake Units

Question: And the “Radioactivity in Small intestine” value (20 min)?
Answer: 2.16* Uptake Units

Question: And the “Radioactivity in Somatosensory cortex” value (20 min)?
Answer: 2.03 Uptake Units

Question: And the “Radioactivity in Spleen” value (20 min)?
Answer: 3.26* Uptake Units

Question: What about the “Radioactivity in Stomach” value (20 min) of the same compound?
Answer: 0.67* Uptake Units

Question: What about the “Radioactivity in Striata” value (20 min) of the same compound?
Answer: 1.65* Uptake Units

Question: What about the “Radioactivity in Superior collicull” value (20 min) of the same compound?
Answer: 1.64 Uptake Units

Question: And the “Radioactivity in Testis” value (20 min)?
Answer: 0.73* Uptake Units

Question: And the “Radioactivity in Thalamus” value (20 min)?
Answer: 2.01 Uptake Units

Question: And the “Radioactivity in Urine” value (20 min)?
Answer: 10.7* Uptake Units

Question: And the “Radioactivity in Visual cortex” value (20 min)?
Answer: 2.07 Uptake Units

Question: What about the “Radioactivity in Plasma” value (20 min) of the same compound?
Answer: 0.17 Uptake Units

Question: What about the “Radioactivity in Whole blood” value (20 min) of the same compound?
Answer: 0.18 Uptake Units

Question: And the “Radioactivity in Cerebellum” value (30 min)?
Answer: 0.55 Uptake Units

Source: US7432397B2, “Imaging compounds” (Hammersmith Imanet Ltd., priority 2002, dated 2008)
